The supplement of paper PMC10307832

Legend:
Assay in all cases: relative viability (nuclei count vs DMSO), 5 days (fraction); higher = more cells survive
Motesanib + Pemetrexed = compound: CC1(C)CNc2cc(NC(=O)c3cccnc3NCc3ccncc3)ccc21 [Motesanib] + Nc1nc2[nH]cc(CCc3ccc(C(=O)N[C@@H](CCC(=O)O)C(=O)O)cc3)c2c(=O)[nH]1 [Pemetrexed] (partner 0.2 µM)
Procedure, shortened: (§1)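 Relative viability equals treated-well nuclei counts divided by vehicle-well nuclei counts. Counts came from 4× images of lung cancer cell lines grown in 1536-well plates for 5 days after pin-tool dosing on the day after seeding. Dosing used one drug alone or a fixed anchor-drug dose plus five library-drug doses (not always all listed) in √10 steps, and values are medians of duplicate plates.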

[1] = compound: C[C@@]1(C(=O)Nc2ccc(F)nc2)CCCN1c1nc(Nc2cc(C3CC3)n[nH]2)c2cccn2n1 + Nc1ncn([C@H]2C[C@H](O)[C@@H](CO)O2)c(=O)n1 [Decitabine] (partner 2 µM)
Procedure, shortened: as §1

[2] = compound: C[C@@]1(C(=O)Nc2ccc(F)nc2)CCCN1c1nc(Nc2cc(C3CC3)n[nH]2)c2cccn2n1 + O=C(c1cc(Cc2n[nH]c(=O)c3ccccc23)ccc1F)N1CCN(C(=O)C2CC2)CC1 [Olaparib] (partner 8 µM)
Procedure, shortened: as §1

[3] = compound: C[C@@]1(C(=O)Nc2ccc(F)nc2)CCCN1c1nc(Nc2cc(C3CC3)n[nH]2)c2cccn2n1 + COc1cccc2cc(-c3nc([C@H]4CC[C@H](C(=O)O)CC4)n4ncnc(N)c34)[nH]c12 [OSI-027] (partner 0.5 µM)
Procedure, shortened: as §1

Cell Line	relative viability (Motesanib + Pemetrexed; first compound 0.01 µM)	relative viability (Motesanib + Pemetrexed; first compound 0.03162 µM)	relative viability (Motesanib + Pemetrexed; first compound 0.1 µM)	relative viability (Motesanib + Pemetrexed; first compound 0.3162 µM)	relative viability (Motesanib + Pemetrexed; first compound 1 µM)	relative viability ([1]; first compound 0.04 µM)	relative viability ([1]; first compound 0.1265 µM)	relative viability ([1]; first compound 0.4 µM)	relative viability ([1]; first compound 1.265 µM)	relative viability ([2]; first compound 0.04 µM)	relative viability ([2]; first compound 0.1265 µM)	relative viability ([2]; first compound 0.4 µM)	relative viability ([2]; first compound 1.265 µM)	relative viability ([3]; first compound 0.04 µM)	relative viability ([3]; first compound 0.1265 µM)	relative viability ([3]; first compound 0.4 µM)	relative viability ([3]; first compound 1.265 µM)
NCI-H1666	0.954	0.831	0.816	0.868	0.824	0.66	0.644	0.587	0.492	0.707	0.73	0.713	0.724	0.611	0.488	0.568	0.426
LC-2-ad	0.289	0.259	0.268	0.262	0.256	0.82	0.73	0.66	0.606	0.676	0.664	0.581	0.492	0.601	0.458	0.405	0.392
SK-LU-1	0.961	0.806	0.547	0.417	0.347	0.672	0.543	0.489	0.524	0.414	0.361	0.396	0.403	0.252	0.176	0.198	0.219
ChaGo-K-1	0.262	0.249	0.227	0.235	0.237	0.511	0.52	0.499	0.503	0.414	0.398	0.402	0.422	0.402	0.252	0.317	0.291
COR-L 105	1.19	0.96	1.34	1.12	1.33	0.697	0.547	0.541	0.588	0.74	0.604	0.571	0.595	0.627	0.377	0.31	0.408
NCI-H1975	0.283	0.281	0.274	0.271	0.239	0.38	0.388	0.319	0.303	0.653	0.749	0.626	0.476	0.663	0.498	0.423	0.527
Calu-6										0.612	0.644	0.543	0.384				
EBC-1										0.695	0.666	0.61	0.391				
NCI-H1299										0.976	0.97	0.887	0.964				
NCI-H2228	0.366	0.292	0.254	0.191	0.241					0.767	0.503	0.426	0.32	0.495	0.187	0.227	0.229
IA-LM										0.835	0.81	0.658	0.719				
NCI-H727						0.8	0.636	0.529	0.362	0.746	0.506	0.476	0.416	0.373	0.273	0.383	0.351
CAL-12T	1.17	1.17	1.19	1.16	1.08					0.729	0.751	0.583	0.449	0.486	0.382	0.292	0.275
